Source: the NIST ThermoML archive (doi:10.1016/j.jct.2013.06.018)

Experiment: excess molar enthalpy (molar enthalpy of mixing); xn = mol fraction of the nth substance listed
Conditions: 298.15 K, 101 kPa, Liquid, Calvet calorimetry

CCCCCCC [heptane] + CCCO
Conditions | excess molar enthalpy [kcal/mol]
x2 = 0.0699 | 0.102
x2 = 0.1182 | 0.125
x2 = 0.2088 | 0.148
x2 = 0.3839 | 0.158
x2 = 0.4743 | 0.152
x2 = 0.5332 | 0.142
x2 = 0.6744 | 0.115
x2 = 0.7196 | 0.103
x2 = 0.7698 | 0.0906
x2 = 0.7701 | 0.0884
x2 = 0.8193 | 0.0719
x2 = 0.8566 | 0.0605
x2 = 0.8909 | 0.0483
x2 = 0.8974 | 0.0464
x2 = 0.9343 | 0.0308
x2 = 0.9675 | 0.016
